Reference: patent publication US20230002334A1, “TRPM8 MODULATORS” (Givaudan SA, priority 2019, published 2023)

Molecular target: T1, hTRPM8 (Homo sapiens, UniProt Q7Z2W7)
T1 construct: expressed in transfected cells
Assay: Assay on TRPM8 modulators: calcium imaging (Fluo-4, Flexstation) in HEK293 cell line stably expressing hTRPM8
Type: cell-based
Conditions: HEK293 cells stably expressing hTRPM8, calcium influx, sigmoidal dose-response fit; read-out: EC50
Method: A HEK293 cell line stably expressing hTRPM8 was generated according to Klein et al., (Chem. Senses 36: 649-658, 2011) and receptor activation was monitored by calcium imaging in a Flexstation. For Ca-imaging assays of TRPM8 channel activation, cells were seeded on day 0 at a density of 12000 cells per well in Dulbecco's modified Eagle medium (DMEM) containing 9% foetal bovine serum in black, clear bottom 96-well plates that had been coated with 0.001% polyethyleneimine (molecular weight=60 000, Acros Organics). On day 2, agonists were evaluated via calcium imaging using Fluo-4. Briefly, growth medium was discarded, and the cells were incubated in the dark for 1 h at 37° C. in 50 μL loading buffer consisting of 2.7 μM Fluo-4 AM (Invitrogen) and […] probenecid (Sigma-Aldrich) in DMEM (without serum). After incubation, the plates were washed five times with 100 μL of assay buffer (in mM: 130 NaCl, 5 KCl, 10 HEPES, 2 CaCl2, and 10 glucose, pH7.4.) and further incubated in the dark at room temperature for 30 min. The cells were then washed five times with 100 μL assay buffer and then calcium influx to serial dilutions of inventive compounds were measured in a Flexstation 3 (Molecular Devices). Receptor activation was initiated following addition of 20 μl of a 10-fold concentrated ligand stock solution, which is also prepared in assay buffer. Fluorescence was continuously monitored for 15 seconds prior to ligand addition and for 105 seconds after ligand addition, for a total of 120 seconds. Maximal receptor activation in relation to solvent control and relative to 31.6 μM menthol is determined. Data from serial dilutions were processed with a KNIME workflow to fit a sigmoidal dose-response curve and to extrapolate EC50 values.

T1 sequence (Q7Z2W7 whole entry): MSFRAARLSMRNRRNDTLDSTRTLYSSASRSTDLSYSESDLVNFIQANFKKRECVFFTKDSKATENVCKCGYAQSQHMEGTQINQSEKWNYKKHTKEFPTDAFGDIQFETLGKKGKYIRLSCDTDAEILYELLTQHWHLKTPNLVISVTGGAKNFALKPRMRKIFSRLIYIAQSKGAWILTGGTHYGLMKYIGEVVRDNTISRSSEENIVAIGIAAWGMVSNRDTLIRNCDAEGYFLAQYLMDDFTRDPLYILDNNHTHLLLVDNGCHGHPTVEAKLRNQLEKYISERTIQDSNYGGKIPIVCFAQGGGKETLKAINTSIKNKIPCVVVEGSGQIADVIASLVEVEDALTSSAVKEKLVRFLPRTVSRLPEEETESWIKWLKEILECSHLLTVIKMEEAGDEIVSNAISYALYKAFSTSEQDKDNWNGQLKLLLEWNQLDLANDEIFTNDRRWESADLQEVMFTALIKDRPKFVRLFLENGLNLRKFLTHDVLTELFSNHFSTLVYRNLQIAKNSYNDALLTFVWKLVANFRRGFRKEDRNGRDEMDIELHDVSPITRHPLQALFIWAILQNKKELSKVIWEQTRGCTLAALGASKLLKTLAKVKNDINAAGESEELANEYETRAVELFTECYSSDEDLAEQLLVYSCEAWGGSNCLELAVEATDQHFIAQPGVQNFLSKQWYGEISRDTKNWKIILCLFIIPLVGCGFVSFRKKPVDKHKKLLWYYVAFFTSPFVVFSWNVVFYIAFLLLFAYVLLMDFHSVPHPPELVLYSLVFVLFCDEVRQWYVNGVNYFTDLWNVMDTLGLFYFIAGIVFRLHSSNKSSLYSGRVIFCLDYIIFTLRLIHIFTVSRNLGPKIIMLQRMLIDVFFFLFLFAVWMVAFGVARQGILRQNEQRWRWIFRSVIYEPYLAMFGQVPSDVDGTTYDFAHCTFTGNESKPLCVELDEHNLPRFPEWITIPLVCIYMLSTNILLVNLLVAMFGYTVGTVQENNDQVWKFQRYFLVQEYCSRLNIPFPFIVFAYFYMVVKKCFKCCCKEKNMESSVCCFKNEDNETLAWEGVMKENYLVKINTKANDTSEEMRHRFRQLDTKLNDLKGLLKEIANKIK

Row | EC50 [nM] | Compound
1 | 50 to 300 | CC(C)CC[C@@]1(C)C[C@@H]2[C@@H]([C@@H](C)C1)N(C(C)C)OC2(C)C (racemic) [Compound 112, rac-(3aR,5R,S,7aR)-5-isopentyl-1-isopropyl-3,3,5,7-tetramethyloctahydrobenzo[c]isoxazole]
2 | 50 to 300 | COc1ccccc1[C@@]1(C)C[C@@H]2[C@@H]([C@@H](C)C1)N(C(C)C)OC2(C)C (racemic) [Compound 65, rac-(3aR,5R,7S,7aR)-1-isopropyl-5-(2-methoxyphenyl)-3,3,5,7-tetramethyloctahydrobenzo[c]isoxazole]
3 | 300 to 1000 | Cc1ccccc1[C@H]1C[C@@H]2[C@@H]([C@@H](C)C1)N(C(C)C)OC2(C)C (racemic) [Compound 63, rac-(3aR,5R,7S,7aR)-1-isopropyl-3,3,7-trimethyl-5-(o-tolyl)octahydrobenzo[c]isoxazole]
4 | 1000 to 35000 | Cc1cc(F)ccc1[C@]1(C)C[C@@H](C)[C@@H]2[C@@H](C1)C(C)(C)ON2C (racemic) [Compound 35, rac-(3aR,5R,7R,7aR)-5-(4-fluoro-2-methylphenyl)-1,3,3,5,7-pentamethyloctahydrobenzo[c]isoxazole]
5 | 50 to 300 | CC(C)=CC[C@@]1(C)C[C@@H]2[C@@H]([C@@H](C)C1)N(C(C)C)OC2(C)C (racemic) [Compound 58, rac-(3aR,5R,7S,7aR)-1-isopropyl-3,3,5,7-tetramethyl-5-(3-methylbut-2-en-1-yl)octahydrobenzo[c]isoxazole]
6 | 50 to 300 | Cc1c(Cl)cccc1[C@@]1(C)C[C@@H]2[C@@H]([C@@H](C)C1)N(C)OC2(C)C (racemic) [Compound 89, rac-(3aR,5R,7S,7aR)-5-(3-chloro-2-methylphenyl)-1,3,3,5,7-pentamethyloctahydrobenzo[c]isoxazole]
7 | 50 to 300 | Cc1ccccc1[C@@]1(C)C[C@@H]2[C@@H]([C@@H](C)C1)N(C(C)C)OC2(C)C (racemic) [Compound 59, rac-(3aR,5R,7S,7aR)-1-isopropyl-3,3,5,7-tetramethyl-5-(o-tolyl)octahydrobenzo[c]isoxazole]
8 | < 50 | Cc1ccc(Cl)cc1[C@@]1(C)C[C@@H]2[C@@H]([C@@H](C)C1)N(C)OC2(C)C (racemic) [Compound 105, rac-(3aR,5R,7S,7aR)-5-(5-chloro-2-methylphenyl)-1,3,3,5,7-pentamethyloctahydrobenzo[c]isoxazole]
9 | 300 to 1000 | Cc1c(Cl)cccc1[C@]1(C)C[C@@H](C)[C@@H]2[C@@H](C1)C(C)(C)ON2C (racemic) [Compound 34, rac-(3aR,5R,7R,7aR)-5-(3-chloro-2-methylphenyl)-1,3,3,5,7-pentamethyloctahydrobenzo[c]isoxazole]
10 | 50 to 300 | Cc1cc(C)c([C@@]2(C)C[C@@H]3[C@@H]([C@@H](C)C2)N(C)OC3(C)C)cc1C (racemic) [Compound 38, rac-(3aR,5R,7S,7aR)-1,3,3,5,7-pentamethyl-5-(2,4,5-trimethylphenyl)octahydrobenzo[c]isoxazole]
11 | 50 to 300 | Cc1cc(C#N)ccc1[C@@]1(C)C[C@@H]2[C@@H]([C@@H](C)C1)N(C)OC2(C)C (racemic) [Compound 130, rac-3-methyl-4-((3aR,5R,7S,7aR)-1,3,3,5,7-pentamethyloctahydrobenzo[c]isoxazol-5-yl)benzonitrile]
12 | < 50 | Cc1ccc(C)c([C@@]2(C)C[C@@H]3[C@@H]([C@@H](C)C2)N(C)OC3(C)C)c1 (racemic) [Compound 74, rac-(3aR,5R,7S,7aR)-5-(2,5-dimethylphenyl)-1,3,3,5,7-pentamethyloctahydrobenzo[c]isoxazole]
13 | 50 to 300 | CC(C)N1OC(C)(C)[C@@H]2C[C@](C)(c3ccccc3)C[C@H](C)[C@H]21 (racemic) [Compound 60, rac-(3aR,5R,7S,7aR)-1-isopropyl-3,3,5,7-tetramethyl-5-phenyloctahydrobenzo[c]isoxazole]
14 | 1000 to 35000 | CC(C)N1OC(C)(C)[C@@H]2C[C@H](c3ccc(C(C)(C)C)cc3)C[C@H](C)[C@H]21 (racemic) [Compound 97, rac-(3aR,5R,7S,7aR)-5-(4-(tert-butyl)phenyl)-1-isopropyl-3,3,7-trimethyloctahydrobenzo[c]isoxazole]
15 | 1000 to 35000 | CC(C)c1cccc([C@@]2(C)C[C@@H]3[C@@H]([C@@H](C)C2)N(C)OC3(C)C)c1 (racemic) [Compound 93, rac-(3aR,5R,7S,7aR)-5-(3-isopropylphenyl)-1,3,3,5,7-pentamethyloctahydrobenzo[c]isoxazole]

More lines, now with the values behind:

Row | Compound | EC50 [nM]
16 | CCN1OC(C)(C)[C@@H]2C[C@](C)(c3ccccc3C)C[C@@H](C)[C@H]21 (racemic) [Compound 33, rac-(3aR,5R,7R,7aR)-1-ethyl-3,3,5,7-tetramethyl-5-(o-tolyl)octahydrobenzo[c]isoxazole] | 300 to 1000
17 | CC(C)CCC1CC(C)C2C(C1)C(C)(C)OC(=O)N2C (centres unmarked) [Compound 21, 6-isopentyl-1,4,4,8-tetramethyloctahydro-2H-benzo[d][1,3]oxazin-2-one] | 1000 to 35000
18 | CCC1CC(CC)C2C(C1)C(C)(C)ON2C (centres unmarked) [Compound 19, 5,7-diethyl-1,3,3-trimethyloctahydrobenzo[c]isoxazole] | 1000 to 35000
19 | CCN1OC(C)(C)[C@@H]2C[C@H](c3ccccc3OC)C[C@H](C)[C@H]21 (racemic) [Compound 57, rac-(3aR,5R,7S,7aR)-1-ethyl-5-(2-methoxyphenyl)-3,3,7-trimethyloctahydrobenzo[c]isoxazole] | < 50
20 | C[C@H]1C[C@@](C)(c2ccccc2F)C[C@@H]2[C@@H]1N(C)OC2(C)C (racemic) [Compound 81, rac-(3aR,5R,7S,7aR)-5-(2-fluorophenyl)-1,3,3,5,7-pentamethyloctahydrobenzo[c]isoxazole] | 50 to 300
21 | COc1cc(F)ccc1[C@@]1(C)C[C@@H]2[C@@H]([C@@H](C)C1)N(C)OC2(C)C (racemic) [Compound 99, rac-(3aR,5R,7S,7aR)-5-(4-fluoro-2-methoxyphenyl)-1,3,3,5,7-pentamethyloctahydrobenzo[c]isoxazole] | < 50
22 | Cc1ccccc1[C@H]1C[C@@H]2[C@@H]([C@@H](C)C1)N(C)OC2(C)C (racemic) [Compound 51, rac-(3aR,5R,7S,7aR)-1,3,3,7-tetramethyl-5-(o-tolyl)octahydrobenzo[c]isoxazole] | 300 to 1000
23 | COc1ccc(C#N)cc1[C@@]1(C)C[C@@H]2[C@@H]([C@@H](C)C1)N(C)OC2(C)C (racemic) [Compound 133, rac-4-methoxy-3-((3aR,5R,7S,7aR)-1,3,3,5,7-pentamethyloctahydrobenzo[c]isoxazol-5-yl)benzonitrile] | < 50
24 | Cc1ccncc1C1(C)CC(C)C2C(C1)C(C)(C)ON2C (centres unmarked) [Compound 2, 1,3,3,5,7-pentamethyl-5-(4-methylpyridin-3-yl)octahydrobenzo[c]isoxazole] | 300 to 1000
25 | C[C@H]1C[C@@H](c2ccc(C(C)(C)C)cc2)C[C@@H]2[C@@H]1N(C)OC2(C)C (racemic) [Compound 96, rac-(3aR,5R,7S,7aR)-5-(4-(tert-butyl)phenyl)-1,3,3,7-tetramethyloctahydrobenzo[c]isoxazole] | 1000 to 35000
26 | Cc1ccc(C#N)c([C@@]2(C)C[C@@H]3[C@@H]([C@@H](C)C2)N(C)OC3(C)C)c1 (racemic) [Compound 134, rac-4-methyl-2-((3aR,5R,7S,7aR)-1,3,3,5,7-pentamethyloctahydrobenzo[c]isoxazol-5-yl)benzonitrile] | 50 to 300
27 | CCN1OC(C)(C)[C@@H]2C[C@](C)(c3ccccc3C)C[C@H](C)[C@H]21 (racemic) [Compound 54, rac-(3aR,5R,7S,7aR)-1-ethyl-3,3,5,7-tetramethyl-5-(o-tolyl)octahydrobenzo[c]isoxazole] | < 50
28 | CCN1OC(C)(C)[C@@H]2C[C@](C)(c3ccccc3)C[C@H](C)[C@H]21 (racemic) [Compound 55, rac-(3aR,5R,7S,7aR)-1-ethyl-3,3,5,7-tetramethyl-5-phenyloctahydrobenzo[c]isoxazole] | 50 to 300
29 | CCC[C@@]1(C)C[C@@H]2[C@@H]([C@@H](C)C1)N(C)OC2(C)C (racemic) [Compound 49, rac-(3aR,5R,7S,7aR)-1,3,3,5,7-pentamethyl-5-propyloctahydrobenzo[c]isoxazole] | 300 to 1000
30 | CC[C@@H]1CC[C@@H]2[C@@H](C1)C(C)(C)ON2C(C)C (racemic) [Compound 30, rac-(3aR,5R,7aR)-5-ethyl-1-isopropyl-3,3-dimethyloctahydrobenzo[c]isoxazole] | 1000 to 35000
31 | Cc1ccc([C@@]2(C)C[C@@H]3[C@@H]([C@@H](C)C2)N(C)OC3(C)C)cc1C#N (racemic) [Compound 123, rac-2-methyl-5-((3aR,5R,7S,7aR)-1,3,3,5,7-pentamethyloctahydrobenzo[c]isoxazol-5-yl)benzonitrile] | 50 to 300
32 | COc1cccc([C@@]2(C)C[C@@H]3[C@@H]([C@@H](C)C2)N(C(C)C)OC3(C)C)n1 (racemic) [Compound 68, rac-(3aR,5R,7S,7aR)-1-isopropyl-5-(6-methoxypyridin-2-yl)-3,3,5,7-tetramethyloctahydrobenzo[c]isoxazole] | 300 to 1000
